Source: patent publication US8901118B2, “Compounds and methods for kinase modulation, and indications therefor” (Plexxikon Inc., priority 2010, dated 2014)

How the values were obtained:
CYP2C19 = CYP2C19 (Homo sapiens, UniProt P33261); experiment: CYP2C19 inhibition (fluorescent substrate CEC); format: in vitro ADME; settings: read-out: Cyp IC50 2C19
In short: (§1)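 Test compound titrated 1:1 across ten concentrations; metabolite fluorescence measured after 37 °C incubation of 15 min (CYP1A2), 30 min (CYP2C19, CYP2D6) or 45 min (CYP2C9). IC50 from signal versus concentration.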

CYP2D6 = CYP2D6 (Homo sapiens, UniProt P10635); experiment: CYP2D6 inhibition (fluorescent substrate AMMC); format: in vitro ADME; settings: read-out: Cyp IC50 2D6
Chain of CYP2D6 (P10635 whole entry): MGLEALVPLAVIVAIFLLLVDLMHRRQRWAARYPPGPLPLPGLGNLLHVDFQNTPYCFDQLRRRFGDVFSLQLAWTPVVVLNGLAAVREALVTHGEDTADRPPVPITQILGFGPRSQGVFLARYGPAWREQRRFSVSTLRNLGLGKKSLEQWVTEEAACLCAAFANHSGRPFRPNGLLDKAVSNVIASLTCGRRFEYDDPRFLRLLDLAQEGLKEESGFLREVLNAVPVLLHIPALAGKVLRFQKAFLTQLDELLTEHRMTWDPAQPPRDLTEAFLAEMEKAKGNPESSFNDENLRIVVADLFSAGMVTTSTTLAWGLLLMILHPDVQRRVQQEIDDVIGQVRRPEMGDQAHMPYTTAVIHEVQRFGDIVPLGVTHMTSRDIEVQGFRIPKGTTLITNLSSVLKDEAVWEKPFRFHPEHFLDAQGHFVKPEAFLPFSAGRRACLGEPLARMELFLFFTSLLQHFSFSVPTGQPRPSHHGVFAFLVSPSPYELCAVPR
In short: as §1

CYP2C9 = CYP2C9 (Homo sapiens, UniProt P11712); experiment: CYP2C9 inhibition (fluorescent substrate MFC); format: in vitro ADME; settings: read-out: Cyp IC50 2C9
Chain of CYP2C9 (P11712 whole entry): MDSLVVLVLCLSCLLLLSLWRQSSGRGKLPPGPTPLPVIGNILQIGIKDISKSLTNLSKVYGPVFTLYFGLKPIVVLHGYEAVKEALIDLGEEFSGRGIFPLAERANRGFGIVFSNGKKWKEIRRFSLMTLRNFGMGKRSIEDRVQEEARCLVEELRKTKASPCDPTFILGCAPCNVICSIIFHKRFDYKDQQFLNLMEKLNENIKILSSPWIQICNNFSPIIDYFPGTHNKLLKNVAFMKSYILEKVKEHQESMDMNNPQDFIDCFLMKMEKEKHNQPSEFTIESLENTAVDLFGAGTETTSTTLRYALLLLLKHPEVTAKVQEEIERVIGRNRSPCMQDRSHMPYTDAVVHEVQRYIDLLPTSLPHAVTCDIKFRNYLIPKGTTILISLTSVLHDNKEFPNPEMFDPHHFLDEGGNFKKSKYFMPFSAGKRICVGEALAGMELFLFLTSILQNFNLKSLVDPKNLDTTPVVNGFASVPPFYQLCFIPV
In short: as §1

CYP3A4(BQ) = CYP3A4(BQ) (Homo sapiens, UniProt P08684); experiment: CYP3A4(BQ) inhibition; format: in vitro ADME; settings: CYP3A4, substrate BQ; read-out: Cyp IC50 3A4(BQ)
Chain of CYP3A4(BQ) (P08684 whole entry): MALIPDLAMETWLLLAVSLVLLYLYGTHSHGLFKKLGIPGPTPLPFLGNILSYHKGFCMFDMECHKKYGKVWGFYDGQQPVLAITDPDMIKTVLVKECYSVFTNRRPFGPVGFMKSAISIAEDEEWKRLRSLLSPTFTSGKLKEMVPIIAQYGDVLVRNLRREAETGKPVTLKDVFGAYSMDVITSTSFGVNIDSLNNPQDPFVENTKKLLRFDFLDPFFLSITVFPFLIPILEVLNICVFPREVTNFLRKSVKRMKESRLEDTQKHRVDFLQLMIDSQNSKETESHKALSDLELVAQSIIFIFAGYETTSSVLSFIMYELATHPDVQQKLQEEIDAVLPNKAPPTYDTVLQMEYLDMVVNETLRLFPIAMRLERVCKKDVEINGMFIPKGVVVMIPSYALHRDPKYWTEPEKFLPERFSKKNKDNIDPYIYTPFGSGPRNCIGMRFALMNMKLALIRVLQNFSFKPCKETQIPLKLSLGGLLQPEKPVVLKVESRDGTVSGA
In short: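 After 30 min incubation at 37° C, plates were read on a Tecan Safire 2 at 409 ex/460 em, and IC50 values came from signal plotted against compound concentration. Enzyme and substrate were sourced from BD Biosciences. The cofactor mix held 1.3% NADPH Regeneration system Solution A, 1.04% Solution B, 5% acetonitrile and 0.05% DMSO.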

[1] = Relative solubility by turbidity in aqueous buffers (pH 1.5, 4.5, 6.8, 7.4); format: physicochemical; settings: for turbidity threshold (L, M, H) 1.4: pH 1.5 (SGF); for turbidity threshold (L, M, H) 4.5: pH 4.5 (SIF); for turbidity threshold (L, M, H) 6.8: pH 6.8 (SIF); for turbidity threshold (L, M, H) 7.4: pH 7.4 (HEPES)
In short: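 Reported value: concentration at which optical density at 490, 535 and 650 nm passes 0.01, taken as the mean of the three wavelengths. Buffers were 0.5M NaCl pH 1.5, 0.05M NaH2PO4 pH 4.5 or 6.8, and 10 mM HEPES/150 mM NaCl pH 7.4, each receiving serial 1:1 DMSO dilutions of a 25 mM stock.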

Chain of CYP2C19 (P33261 whole entry): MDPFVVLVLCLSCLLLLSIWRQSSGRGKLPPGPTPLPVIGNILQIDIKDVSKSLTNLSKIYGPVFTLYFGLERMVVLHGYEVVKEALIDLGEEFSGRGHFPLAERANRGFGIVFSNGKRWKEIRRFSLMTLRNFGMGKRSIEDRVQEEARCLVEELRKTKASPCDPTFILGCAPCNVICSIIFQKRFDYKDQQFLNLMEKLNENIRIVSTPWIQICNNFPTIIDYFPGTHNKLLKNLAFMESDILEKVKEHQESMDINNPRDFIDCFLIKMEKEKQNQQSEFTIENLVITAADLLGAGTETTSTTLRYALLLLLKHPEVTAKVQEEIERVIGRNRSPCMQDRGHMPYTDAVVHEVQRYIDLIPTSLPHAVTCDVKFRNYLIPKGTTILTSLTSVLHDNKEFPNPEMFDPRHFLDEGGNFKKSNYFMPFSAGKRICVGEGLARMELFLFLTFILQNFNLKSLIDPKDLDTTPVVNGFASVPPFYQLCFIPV

IC50 (CYP2C19) [µM]	IC50 (CYP2D6) [µM]	IC50 (CYP2C9) [µM]	IC50 (CYP3A4(BQ)) [µM]	Compound	turbidity threshold (L, M, H) 1.4 [1]	turbidity threshold (L, M, H) 4.5 [1]	turbidity threshold (L, M, H) 6.8 [1]	turbidity threshold (L, M, H) 7.4 [1]
> 10	> 10	> 10	> 10	CC(C)=CNc1ncnc2[nH]cc(C(=O)c3ccc(NC4CCC(F)(F)CC4)nc3Cl)c12 [Compound P-4047, [2-chloro-6-[(4,4-difluorocyclohexyl)amino]-3-pyridyl]-[4-(2-methylprop-1-enylamino)-7H-pyrrolo[2,3-d]pyrimidin-5-yl]methanone]				
< 5	> 10	5 to 10	5 to 10	Fc1nc(Nc2ccc(C3CC3)nc2)ccc1Cc1c[nH]c2ncnc(C3CC3)c12 [Compound P-4041, (6-Cyclopropyl-pyridin-3-yl)-[5-(4-cyclopropyl-7H-pyrrolo[2,3-d]pyrimidin-5-ylmethyl)-6-fluoro-pyridin-2-yl]-amine]				
> 10	> 10	> 10	> 10	CNc1ncnc2[nH]cc(C(=O)c3cnc(NC4CCC(F)(F)CC4)c(F)c3)c12 [Compound P-4054, [6-[(4,4-difluorocyclohexyl)amino]-5-fluoro-3-pyridyl]-[4-(methylamino)-7H-pyrrolo[2,3-d]pyrimidin-5-yl]methanone]	H (high solubility if the threshold concentration is >250 μm)	M (moderate solubility if the threshold concentration is 31.3 μM to 250 μM)	M (moderate solubility if the threshold concentration is 31.3 μM to 250 μM)	M (moderate solubility if the threshold concentration is 31.3 μM to 250 μM)
> 10	> 10	> 10	> 10	O=C(c1cnc(NC2CCC(F)(F)CC2)c(F)c1)c1c[nH]c2ncnc(NCC(F)(F)F)c12 [Compound P-4052, [6-[(4,4-difluorocyclohexyl)amino]-5-fluoro-3-pyridyl]-[4-(2,2,2-trifluoroethylamino)-7H-pyrrolo[2,3-d]pyrimidin-5-yl]methanone]	L (low solubility if the threshold concentration is <31.3 μM)	L (low solubility if the threshold concentration is <31.3 μM)	L (low solubility if the threshold concentration is <31.3 μM)	L (low solubility if the threshold concentration is <31.3 μM)
> 10	> 10	> 10	> 10	O=C(c1cnc(NC2CCC(F)(F)CC2)c(F)c1)c1c[nH]c2ncnc(NC3CC3)c12 [Compound P-4053, [4-(cyclopropylamino)-7H-pyrrolo[2,3-d]pyrimidin-5-yl]-[6-[(4,4-difluorocyclohexyl)amino]-5-fluoro-3-pyridyl]methanone]	H (high solubility if the threshold concentration is >250 μm)	M (moderate solubility if the threshold concentration is 31.3 μM to 250 μM)	M (moderate solubility if the threshold concentration is 31.3 μM to 250 μM)	M (moderate solubility if the threshold concentration is 31.3 μM to 250 μM)
> 10	> 10	> 10	> 10	Nc1ncnc2[nH]cc(C(=O)c3ccc(Nc4ccc(C5CC5)nc4)nc3F)c12 [Compound P-4048, (4-amino-7H-pyrrolo[2,3-d]pyrimidin-5-yl)-[6-[(6-cyclopropyl-3-pyridyl)amino]-2-fluoro-3-pyridyl]methanone]	H (high solubility if the threshold concentration is >250 μm)	M (moderate solubility if the threshold concentration is 31.3 μM to 250 μM)	M (moderate solubility if the threshold concentration is 31.3 μM to 250 μM)	M (moderate solubility if the threshold concentration is 31.3 μM to 250 μM)
> 10	> 10	> 10	> 10	CCNc1ncnc2[nH]cc(C(=O)c3ccc(NC4CCC(F)(F)CC4)nc3Cl)c12 [Compound P-4050, [2-chloro-6-[(4,4-difluorocyclohexyl)amino]-3-pyridyl]-[4-(ethylamino)-7H-pyrrolo[2,3-d]pyrimidin-5-yl]methanone]	H (high solubility if the threshold concentration is >250 μm)	L (low solubility if the threshold concentration is <31.3 μM)	L (low solubility if the threshold concentration is <31.3 μM)	L (low solubility if the threshold concentration is <31.3 μM)
> 10	> 10	> 10	> 10	CCNc1ncnc2[nH]cc(C(=O)c3cnc(NC4CCC(F)(F)CC4)c(F)c3)c12 [Compound P-4051, [6-[(4,4-difluorocyclohexyl)amino]-5-fluoro-3-pyridyl]-[4-(ethylamino)-7H-pyrrolo[2,3-d]pyrimidin-5-yl]methanone]	H (high solubility if the threshold concentration is >250 μm)	M (moderate solubility if the threshold concentration is 31.3 μM to 250 μM)	M (moderate solubility if the threshold concentration is 31.3 μM to 250 μM)	L (low solubility if the threshold concentration is <31.3 μM)
5 to 10	> 10	5 to 10	> 10	CC(C)(O)CNc1ncnc2[nH]cc(C(=O)c3ccc(Nc4ccc(C5CC5)nc4)nc3F)c12 [Compound P-4049, [6-[(6-cyclopropyl-3-pyridyl)amino]-2-fluoro-3-pyridyl]-[4-[(2-hydroxy-2-methyl-propyl)amino]-7H-pyrrolo[2,3-d]pyrimidin-5-yl]methanone]	H (high solubility if the threshold concentration is >250 μm)	L (low solubility if the threshold concentration is <31.3 μM)	L (low solubility if the threshold concentration is <31.3 μM)	L (low solubility if the threshold concentration is <31.3 μM)
< 5	> 10	5 to 10		Cc1cnc2[nH]cc(Cc3ccc(NC4CCCCC4)nc3F)c2c1 [Compound P-3008, cyclohexyl-[6-fluoro-5-(5-methyl-1H-pyrrolo[2,3-b]pyridin-3-ylmethyl)-pyridin-2-yl]-amine]				
